# Measured values published in the NIST ThermoML archive (doi:10.1016/j.jct.2017.02.022).
# Numbers after ± are expanded uncertainties.
# Test: refractive index (Na D-line) (dimensionless); xn = mol fraction of the nth substance listed
# Details: 308 K; 101.3 kPa; Liquid; Standard Abbe refractometry; x2 = 0
row,refractive index,Structure (SMILES)
1,1.406 ± 0.01,CCCCCO [pentan-1-ol] + CCn1cc[n+](C)c1.COS(=O)(=O)[O-]
2,1.406 ± 0.01,CCCCCO [pentan-1-ol] + COS(=O)(=O)[O-].Cn1cc[n+](C)c1
3,1.38 ± 0.01,CCCO [propan-1-ol] + CCn1cc[n+](C)c1.COS(=O)(=O)[O-]
4,1.38 ± 0.01,CCCO [propan-1-ol] + COS(=O)(=O)[O-].Cn1cc[n+](C)c1

# Same assay, conditions: 313 K; 101.3 kPa; Liquid; Standard Abbe refractometry; x2 = 0
row,refractive index,Structure (SMILES)
1,1.389 ± 0.01,CCCCO [butan-1-ol] + CCn1cc[n+](C)c1.COS(=O)(=O)[O-]
2,1.389 ± 0.01,CCCCO [butan-1-ol] + COS(=O)(=O)[O-].Cn1cc[n+](C)c1
3,1.404 ± 0.01,CCCCCO [pentan-1-ol] + CCn1cc[n+](C)c1.COS(=O)(=O)[O-]
4,1.404 ± 0.01,CCCCCO [pentan-1-ol] + COS(=O)(=O)[O-].Cn1cc[n+](C)c1
5,1.378 ± 0.01,CCCO [propan-1-ol] + CCn1cc[n+](C)c1.COS(=O)(=O)[O-]
6,1.378 ± 0.01,CCCO [propan-1-ol] + COS(=O)(=O)[O-].Cn1cc[n+](C)c1

# Test: not given
# Details: 298 K; 101.3 kPa; Liquid; Frequency=3 MHz; Sing-around technique in a fixed-path interferometer
row,speed of sound [m/s],Structure (SMILES)
1,1811 ± 20,"COS(=O)(=O)[O-].Cn1cc[n+](C)c1 [1,3-dimethylimidazolium methylsulfate]"
2,1762 ± 20,CCn1cc[n+](C)c1.COS(=O)(=O)[O-] [1-ethyl-3-methylimidazolium methylsulfate]
3,1240 ± 20,CCCCO [butan-1-ol]
4,1276 ± 20,CCCCCO [pentan-1-ol]
5,1208 ± 20,CCCO [propan-1-ol]

# Same assay, conditions: 298 K; 101.3 kPa; Liquid; Vibrating tube method
row,mass density [kg/m3],Structure (SMILES)
1,1329 ± 4,"COS(=O)(=O)[O-].Cn1cc[n+](C)c1 [1,3-dimethylimidazolium methylsulfate]"
2,1292 ± 2,CCn1cc[n+](C)c1.COS(=O)(=O)[O-] [1-ethyl-3-methylimidazolium methylsulfate]
3,806 ± 2,CCCCO [butan-1-ol]
4,811 ± 2,CCCCCO [pentan-1-ol]
5,800 ± 2,CCCO [propan-1-ol]

# Same assay, conditions: 303 K; 101.3 kPa; Liquid; Frequency=3 MHz; Sing-around technique in a fixed-path interferometer
row,speed of sound [m/s],Structure (SMILES)
1,1799 ± 20,"COS(=O)(=O)[O-].Cn1cc[n+](C)c1 [1,3-dimethylimidazolium methylsulfate]"
2,1750 ± 20,CCn1cc[n+](C)c1.COS(=O)(=O)[O-] [1-ethyl-3-methylimidazolium methylsulfate]
3,1224 ± 20,CCCCO [butan-1-ol]
4,1259 ± 20,CCCCCO [pentan-1-ol]
5,1191 ± 20,CCCO [propan-1-ol]

# Same assay, conditions: 303 K; 101.3 kPa; Liquid; Vibrating tube method
row,mass density [kg/m3],Structure (SMILES)
1,1322 ± 4,"COS(=O)(=O)[O-].Cn1cc[n+](C)c1 [1,3-dimethylimidazolium methylsulfate]"
2,1289 ± 2,CCn1cc[n+](C)c1.COS(=O)(=O)[O-] [1-ethyl-3-methylimidazolium methylsulfate]
3,802 ± 2,CCCCO [butan-1-ol]
4,807 ± 2,CCCCCO [pentan-1-ol]
5,796 ± 2,CCCO [propan-1-ol]

# Same assay, conditions: 308 K; 101.3 kPa; Liquid; Frequency=3 MHz; Sing-around technique in a fixed-path interferometer
row,speed of sound [m/s],Structure (SMILES)
1,1787 ± 20,"COS(=O)(=O)[O-].Cn1cc[n+](C)c1 [1,3-dimethylimidazolium methylsulfate]"
2,1739 ± 20,CCn1cc[n+](C)c1.COS(=O)(=O)[O-] [1-ethyl-3-methylimidazolium methylsulfate]
3,1206 ± 20,CCCCO [butan-1-ol]
4,1242 ± 20,CCCCCO [pentan-1-ol]
5,1174 ± 20,CCCO [propan-1-ol]

# Same assay, conditions: 308 K; 101.3 kPa; Liquid; Vibrating tube method
row,mass density [kg/m3],Structure (SMILES)
1,1319 ± 4,"COS(=O)(=O)[O-].Cn1cc[n+](C)c1 [1,3-dimethylimidazolium methylsulfate]"
2,1285 ± 2,CCn1cc[n+](C)c1.COS(=O)(=O)[O-] [1-ethyl-3-methylimidazolium methylsulfate]
3,798 ± 2,CCCCO [butan-1-ol]
4,803 ± 2,CCCCCO [pentan-1-ol]
5,792 ± 2,CCCO [propan-1-ol]

# Same assay, conditions: 313 K; 101.3 kPa; Liquid; Frequency=3 MHz; Sing-around technique in a fixed-path interferometer
row,speed of sound [m/s],Structure (SMILES)
1,1775 ± 20,"COS(=O)(=O)[O-].Cn1cc[n+](C)c1 [1,3-dimethylimidazolium methylsulfate]"
2,1727 ± 20,CCn1cc[n+](C)c1.COS(=O)(=O)[O-] [1-ethyl-3-methylimidazolium methylsulfate]
3,1190 ± 20,CCCCO [butan-1-ol]
4,1226 ± 20,CCCCCO [pentan-1-ol]
5,1158 ± 20,CCCO [propan-1-ol]

# Same assay, conditions: 313 K; 101.3 kPa; Liquid; Vibrating tube method
row,mass density [kg/m3],Structure (SMILES)
1,1315 ± 4,"COS(=O)(=O)[O-].Cn1cc[n+](C)c1 [1,3-dimethylimidazolium methylsulfate]"
2,1282 ± 2,CCn1cc[n+](C)c1.COS(=O)(=O)[O-] [1-ethyl-3-methylimidazolium methylsulfate]
3,794 ± 2,CCCCO [butan-1-ol]
4,800 ± 2,CCCCCO [pentan-1-ol]
5,789 ± 2,CCCO [propan-1-ol]

# Test: refractive index (Na D-line) (dimensionless)
# Details: 298 K; 101.3 kPa; Liquid; Standard Abbe refractometry
row,refractive index,Structure (SMILES)
1,1.483 ± 0.01,"COS(=O)(=O)[O-].Cn1cc[n+](C)c1 [1,3-dimethylimidazolium methylsulfate]"
2,1.48 ± 0.01,CCn1cc[n+](C)c1.COS(=O)(=O)[O-] [1-ethyl-3-methylimidazolium methylsulfate]
3,1.397 ± 0.01,CCCCO [butan-1-ol]
4,1.408 ± 0.01,CCCCCO [pentan-1-ol]
5,1.383 ± 0.01,CCCO [propan-1-ol]

# Same assay, conditions: 303 K; 101.3 kPa; Liquid; Standard Abbe refractometry
row,refractive index,Structure (SMILES)
1,1.481 ± 0.01,"COS(=O)(=O)[O-].Cn1cc[n+](C)c1 [1,3-dimethylimidazolium methylsulfate]"
2,1.479 ± 0.01,CCn1cc[n+](C)c1.COS(=O)(=O)[O-] [1-ethyl-3-methylimidazolium methylsulfate]
3,1.395 ± 0.01,CCCCO [butan-1-ol]
4,1.407 ± 0.01,CCCCCO [pentan-1-ol]
5,1.382 ± 0.01,CCCO [propan-1-ol]

# Same assay, conditions: 308 K; 101.3 kPa; Liquid; Standard Abbe refractometry
row,refractive index,Structure (SMILES)
1,1.48 ± 0.01,"COS(=O)(=O)[O-].Cn1cc[n+](C)c1 [1,3-dimethylimidazolium methylsulfate]"
2,1.478 ± 0.01,CCn1cc[n+](C)c1.COS(=O)(=O)[O-] [1-ethyl-3-methylimidazolium methylsulfate]
3,1.392 ± 0.01,CCCCO [butan-1-ol]
4,1.406 ± 0.01,CCCCCO [pentan-1-ol]
5,1.38 ± 0.01,CCCO [propan-1-ol]

# Same assay, conditions: 313 K; 101.3 kPa; Liquid; Standard Abbe refractometry
row,refractive index,Structure (SMILES)
1,1.479 ± 0.01,"COS(=O)(=O)[O-].Cn1cc[n+](C)c1 [1,3-dimethylimidazolium methylsulfate]"
2,1.476 ± 0.01,CCn1cc[n+](C)c1.COS(=O)(=O)[O-] [1-ethyl-3-methylimidazolium methylsulfate]
3,1.389 ± 0.01,CCCCO [butan-1-ol]
4,1.404 ± 0.01,CCCCCO [pentan-1-ol]
5,1.378 ± 0.01,CCCO [propan-1-ol]
